Assay results from US20240115587A1, “COMBINATION THERAPIES” (Kallyope, Inc., priority 2022, published 2024).
pEC50: −log10 of the molar value. Structures can show the parent of a compound that is named as a salt.

Key:
male C57BL/6J mice [1] = experiment: Glucose excursion during oral glucose tolerance test in mice; type: in vivo; details: for % Reduction in 2-h glucose AUC vs. vehicle: OGTT, AUC 0 to 120 min, B6, B1, A14 30 mg/kg, linagliptin 0.3 mg/kg, metformin 300 mg/kg, dosed 1 h before glucose
Method: The effects of GPR40 agonists of Formula (B) and a GPR119 agonist of Formula (A) alone and in combination on glucose excursion during an oral glucose tolerance test were assessed in mice. The effects of the combination of a compound of Formula (A) and compounds of Formula (B) with linagliptin (a DPP-4 inhibitor) or metformin were also assessed. Male C57BL/6J mice, approximately 10 weeks old, were acclimated to the facility and the oral dosing procedure. Mice were randomized into balanced treatment groups using body weight. Baseline glucose was assessed immediately before compound administration. […] Blood was assessed for glucose levels 20 min, 40 min, 60 min, and 120 min post D-(+)-glucose administration. The AUCs for blood glucose measures were calculated for each treatment from 0 to 120 min. Statistical analysis was performed on AUCs using one-way ANOVA versus vehicle, with Tukey's post-test.

[2] = system: diet-induced-obese (DIO) mice; experiment: 14-day weight loss in DIO mice; type: in vivo; details: BID, 13 or 14 days
Method: The effects of a GPR40 Agonist of Formula (B) alone and in combination with a GPR119 Agonist of Formula (A) on body weight were assessed in diet-induced-obese (DIO) mice over 14 days.
Male C57BL/6J DIO mice, approximately 16 weeks old (Jackson Laboratories), were provided 60% high fat diet and water ad libitum. Animals were dosed BID (two times a day) with vehicle for an approximately 3-week until body weight had stabilized. At approximately 20 weeks of age, the mice were randomized into treatment groups (n=8/group) by body weight (range of 37 to 55 g) as well as food intake, and body weight change measured over a two-day baseline period. In order to maximize time on target throughout the day, compounds were administered BID, 8 h apart. Food intake and body weight were measured daily.

male C57BL/6J mice [3] = experiment: Gut hormone (GLP-1) secretion in mice, plasma GLP-1 after oral gavage; type: in vivo; details: 30 mg/kg of each compound
Method: To determine whether activating two receptors simultaneously results in increased effects on hormone release, representative GPR40 agonists of Formula (B) were tested in combination with a GPR119 agonist of Formula (A). GLP-1 was measured at 5 and 17 h post dose. For the dose titration study, male C57BL/6J mice were acclimated to the facility and the dosing procedure. Mice were weighed and then fasted for 4 h. The mice were administered vehicle, a GPR40 agonist of Formula (B) at 30 mg/kg, a GPR119 agonist of Formula (A) at 30 mg/kg, and the GPR40 agonist of Formula (B) at 0.3, 1, 3, 10, and 30 mg/kg doses in combination with the GPR119 agonist of Formula (A) at 30 mg/kg by oral gavage. Blood was collected at 5 h post-dose or 17 h post-dose, and plasma was assayed for GLP-1.

[4] = system: primary human ileal crypt cultures; experiment: GLP-1 secretion in human ileal crypt cultures; type: cell-based; details: 30 μM
Method: The potential for the combination of a compound of Formula (A) and a compound of Formula (B) to induce gut hormone secretion from EECs was assessed using primary human ileal crypt cultures and compared to the effect of the individual agents.

human GPR40 = molecular target: T1, human GPR40 (Homo sapiens, UniProt O14842); experiment: Inositol phosphate (IP1) accumulation assay, CHO-K1 cells expressing human GPR40; type: cell-based; details: CHO hFFAR1 cells, IP1 HTRF, 90 min
T1 construct: host or cells: CHO-K1
T1 sequence (O14842 whole entry): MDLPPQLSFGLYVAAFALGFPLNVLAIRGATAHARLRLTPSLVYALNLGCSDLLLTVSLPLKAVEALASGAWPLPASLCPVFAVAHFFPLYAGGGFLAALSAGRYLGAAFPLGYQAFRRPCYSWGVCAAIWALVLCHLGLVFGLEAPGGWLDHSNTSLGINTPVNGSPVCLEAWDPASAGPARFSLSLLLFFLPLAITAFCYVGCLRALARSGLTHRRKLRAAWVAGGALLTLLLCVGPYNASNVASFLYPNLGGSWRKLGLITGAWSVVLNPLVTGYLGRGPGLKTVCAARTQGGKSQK
Method: CHO-K1 cells expressing human GPR40 were purchased from DiscoverX (95-1005C2). HEK293 cells expressing mouse FFAR1 were prepared using a mouse FFAR1 carrying plasmid purchased from OriGene Technologies (MR222997). The cells were transfected using Lipofectamine 2000 using manufacturer instructions and stable cell line was established from a single cell using geneticine selection. Assay ready frozen (ARF) cells were prepared and used throughout the study.
The assay was performed in a 384-well plate format using IP1 assay kit from Cis-Bio. ARF cells expressing FFAR1 (mouse and human) were thawed, washed and then plated in the appropriate medium (F12 based medium for CHO hFFAR1 and DMEM based medium for HEK293 mFFAR1—both were supplemented with 10% FBS and penicillin/streptomycin). 20 μL of 3.5×10^5 cells/mL were plated on a Poly D-Lysine coated 384-well white plate. The cells were then incubated for 16 hr at 37° C./5% CO2. After 16 hr the medium was removed and 15 μL of stimulation buffer containing the test compounds was added to the cells. The plates were then incubated for 90 min at 37° C./5% CO2. […]
[…] was measured using ClarioSTAR plate reader, calculating the ratio between emissions at 665 nm and 620 nm (HTRF ratio). […] EC50 and Max activity values were determined using a standard 4-parameter fit.

human GPR119 (hGPR119) = molecular target: T2, human GPR119 (hGPR119) (Homo sapiens, UniProt Q8TDV5); experiment: cAMP accumulation assay, CHO-K1 cells stably expressing human GPR119; type: cell-based; details: cAMP HTRF, 60 minutes
T2 construct: expressed in transfected cells
T2 sequence (Q8TDV5 1-335): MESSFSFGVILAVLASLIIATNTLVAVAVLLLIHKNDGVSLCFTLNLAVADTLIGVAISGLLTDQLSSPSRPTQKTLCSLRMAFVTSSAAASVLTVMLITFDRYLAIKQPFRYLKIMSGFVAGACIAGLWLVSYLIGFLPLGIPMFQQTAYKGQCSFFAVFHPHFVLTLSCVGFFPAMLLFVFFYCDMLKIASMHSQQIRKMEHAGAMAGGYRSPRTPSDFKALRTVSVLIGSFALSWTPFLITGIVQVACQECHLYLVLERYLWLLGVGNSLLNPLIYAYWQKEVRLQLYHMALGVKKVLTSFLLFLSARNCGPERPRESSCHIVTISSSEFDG
Method: CHO-K1 cells stably expressing human GPR119 (hGPR119) were prepared by transfection of a GPR119-carrying plasmid using Lipofectamine 2000 (following manufacturer instructions). A stable cell line was established using the limiting dilution method with geneticine selection. Assay-ready frozen (ARF) cells were prepared and used throughout the study.
The assay was performed in a 384-well plate format using the cAMP Gs dynamic assay kit from Cisbio. ARF cells expressing hGPR119 were thawed, washed and then resuspended in cAMP stimulation buffer at a cell density of 1.1×10^6 cells/mL. Cells were plated at a density of ˜10,000 cells/well (9 μL/well). Dose response curves for the tested compounds were prepared in a cAMP stimulation buffer, containing 0.1% Tween 80 at 4 fold the final concentration. The compounds were then transferred to the cell plates using BRAVO (3 μL/well) and the plates were incubated for 60 minutes at 37° C./5% CO2. Detection buffer (10 μL, prepared as described in the cAMP Gs dynamic kit) were added to each well, and the plates were incubated at ambient temperature for 1 hr.
RT-FRET was measured using a ClarioSTAR plate reader, calculating the ratio between emissions at 665 nm and 620 nm (HTRF ratio). The HTRF ratio for positive (Max) and negative (Min) controls were used to normalize HTRF data and generate values for % activity. EC50 and Max activity values were determined using a standard 4-parameter fit.

Structure (SMILES): COc1ccc(F)c([C@H]2CC[C@H](COc3cccc([C@H](C[P@](C)(=O)O)C4CC4)c3)CC2)c1 (single isomer, unassigned) [Compound B1]
- % Reduction in 2-h glucose AUC vs. vehicle (male C57BL/6J mice [1]): 14%
- % Weight Loss vs Vehicle ([2]; Study 1, DIO mice): 3.1%
- GLP-1 (fold increase) (male C57BL/6J mice [3]; 5 h post dose): 1.9 fold increase
- GLP-1 (fold increase) (male C57BL/6J mice [3]; 17 h post dose): 1.4 fold increase
- GLP-1 (fold increase) [4]: 5.5 fold increase
- pEC50 (human GPR40): ≥ 7.30

Structure (SMILES): COc1ccc(F)c([C@H]2CC[C@H](COc3cccc([C@@H](C[P@@](C)(=O)O)C4CC4)c3)CC2)c1 (single isomer, unassigned) [Compound B2]
- pEC50 (human GPR40): 6.60 to 7.30

Structure (SMILES): CCCc1cnc(N2CCC(CCCOc3cc(F)c(CC(=O)N4CC(C(=O)NCCC[N+](C)(C)C)C4)c(F)c3)CC2)nc1 [Compound A13, 3-[[1-[2-[2,6-difluoro-4-[3-[1-(5-propylpyrimidin-2-yl)-4-piperidyl]propoxy]phenyl]acetyl]azetidine-3-carbonyl|amino]propyl-trimethyl-ammonium formate]
- pEC50 (human GPR119 (hGPR119)): 6.00 to 7.00

Structure (SMILES): O=C(Cc1ccc(OCCCC2CCN(c3ncc(Cl)cn3)CC2)cc1F)N1CC(CNC[C@H](O)[C@@H](O)[C@H](O)[C@H](O)CO)C1 [Compound A14, 2-[4-[3-[1-(5-chloropyrimidin-2-yl)-4-piperidyl]propoxy]-2-fluoro-phenyl]-1-[3-[[[(2S,3R,4R,5R)-2,3,4,5,6-pentahydroxyhexyl]amino]methyl]azetidin-1-yl]ethanone]
- % Reduction in 2-h glucose AUC vs. vehicle (male C57BL/6J mice [1]): 14%
- % Weight Loss vs Vehicle ([2]; Study 1, DIO mice): 2.5%
- GLP-1 (fold increase) (male C57BL/6J mice [3]; 5 h post dose): 1.6 fold increase
- GLP-1 (fold increase) (male C57BL/6J mice [3]; 17 h post dose): 1.3 fold increase
- GLP-1 (fold increase) [4]: 1.9 fold increase

Structure (SMILES): CCc1cnc(N2CCC(CCCOc3ccc(CC(=O)N4CC(CNC[C@H](O)[C@H](O)[C@@H](O)[C@H](O)C(=O)O)C4)c(F)c3)CC2)nc1 [Compound A36, (2S,3R,4S,5S)-6-[[1-[2-[4-[3-[1-(5-ethylpyrimidin-2-yl)-4-piperidyl]propoxy]-2-fluoro-phenyl]acetyl]azetidin-3-yl]methylamino]-2,3,4,5-tetrahydroxy-hexanoic acid]
- pEC50 (human GPR119 (hGPR119)): ≥ 7.00

Structure (SMILES): COCc1cnc(N2CCC(CCCOc3ccc(CC(=O)N4CC(CNCCNC(=O)NC(CO)(CO)CO)C4)c(F)c3)CC2)nc1 [Compound A51]
- pEC50 (human GPR119 (hGPR119)): 6.00 to 7.00

Structure (SMILES): O=C(NCCCCS(=O)(=O)O)C1CN(C(=O)Cc2ccc(OCCCC3CCN(c4ncc(Cl)cn4)CC3)cc2F)C1 [Compound A65, 4-[[1-[2-[4-[3-[1-(5-chloropyrimidin-2-yl)-4-piperidyl]propoxy]-2-fluoro-phenyl]acetyl]azetidine-3-carbonyl]amino]butane-1-sulfonic acid]
- pEC50 (human GPR119 (hGPR119)): 6.00 to 7.00

Structure (SMILES): COc1ccc(CCCC(C)(C)C)c(N2CCC(COc3cccc([C@@H](CP(C)(=O)O)C4CC4)c3)CC2)c1 [Compound B6, ((S)-2-cyclopropyl-2-(3-((1-(2-(4,4-dimethylpentyl)-5-methoxyphenyl)piperidin-4-yl)methoxy)phenyl)ethyl)(methyl)phosphinic acid]
- % Reduction in 2-h glucose AUC vs. vehicle (male C57BL/6J mice [1]): 21%
- % Weight Loss vs Vehicle ([2]; Study 2, DIO mice): 5.2%
- GLP-1 (fold increase) (male C57BL/6J mice [3]; 5 h post dose): 3.2 fold increase
- GLP-1 (fold increase) (male C57BL/6J mice [3]; 17 h post dose): 1.9 fold increase
- GLP-1 (fold increase) [4]: 4.0 fold increase

Structure (SMILES): CC#CCn1c(N2CCC[C@@H](N)C2)nc2c1c(=O)n(Cc1nc(C)c3ccccc3n1)c(=O)n2C [linagliptin, reference compound]
- % Reduction in 2-h glucose AUC vs. vehicle (male C57BL/6J mice [1]): 17%

Structure (SMILES): CN(C)C(=N)N=C(N)N [metformin, reference compound]
- post-prandial glucose excursion (male C57BL/6J mice [1]; OGTT in mice): suppressed post-prandial glucose excursion
- % Reduction in 2-h glucose AUC vs. vehicle (male C57BL/6J mice [1]): 26%
